{"source": "ChEMBL document CHEMBL1201862", "about": "“PubChem BioAssay data set” (2004)", "assay_in_all_cases": "NCI tumour cell line growth inhibition, 48 h", "key": {"[1]": {"test_system": "786-0"}, "[2]": {"test_system": "A498"}, "[3]": {"test_system": "A549"}, "[4]": {"test_system": "ACHN"}, "[5]": {"test_system": "BT-549"}, "[6]": {"test_system": "CAKI-1"}, "[7]": {"test_system": "CCRF-CEM"}, "[8]": {"test_system": "COLO 205"}, "[9]": {"test_system": "EKVX"}, "[10]": {"test_system": "HCT-116"}, "[11]": {"test_system": "HCT-15"}, "[12]": {"test_system": "HL-60"}, "[13]": {"test_system": "HOP-62"}, "[14]": {"test_system": "HOP-92"}, "[15]": {"test_system": "HT-29"}, "[16]": {"test_system": "Hs-578T"}, "[17]": {"test_system": "IGROV-1"}, "[18]": {"test_system": "K562"}, "[19]": {"test_system": "KM12"}, "[20]": {"test_system": "LOX IMVI"}, "[21]": {"test_system": "M14"}, "[22]": {"test_system": "MCF7"}, "[23]": {"test_system": "MDA-MB-231"}, "[24]": {"test_system": "MDA-MB-435"}, "[25]": {"test_system": "MDA-N"}, "[26]": {"test_system": "MOLT-4"}, "[27]": {"test_system": "Malme-3M"}, "[28]": {"test_system": "NCI-H226"}, "[29]": {"test_system": "NCI-H23"}, "[30]": {"test_system": "NCI-H460"}, "[31]": {"test_system": "NCI-H522"}, "[32]": {"test_system": "NCI/ADR-RES"}, "[33]": {"test_system": "OVCAR-3"}, "[34]": {"test_system": "OVCAR-4"}, "[35]": {"test_system": "OVCAR-5"}, "[36]": {"test_system": "OVCAR-8"}, "[37]": {"test_system": "PC-3"}, "[38]": {"test_system": "RPMI-8226"}, "[39]": {"test_system": "RXF 393"}, "[40]": {"test_system": "SF-268"}, "[41]": {"test_system": "SF-295"}, "[42]": {"test_system": "SF-539"}, "[43]": {"test_system": "SK-MEL-2"}, "[44]": {"test_system": "SK-MEL-5"}, "[45]": {"test_system": "SK-OV-3"}, "[46]": {"test_system": "SNB-19"}, "[47]": {"test_system": "SNB-75"}, "[48]": {"test_system": "SR"}, "[49]": {"test_system": "SW-620"}, "[50]": {"test_system": "T47D"}, "[51]": {"test_system": "TK-10"}, "[52]": {"test_system": "U-251"}, "[53]": {"test_system": "UACC-257"}, "[54]": {"test_system": "UACC-62"}, "[55]": {"test_system": "UO-31"}, "[56]": {"test_system": "DU-145"}, "[57]": {"test_system": "HCC 2998"}, "[58]": {"test_system": "SK-MEL-28"}, "[59]": {"test_system": "SN12C"}}, "note": "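48-hour exposure; five concentrations; linearly interpolated endpoints. GI50 is the concentration that inhibits growth by half.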 Calls of active or inactive are those of the source. Rule as the data show it: active = GI50 up to about 1.1 µM and inactive = higher.", "data": [{"smiles": "CN1CCOC1(C)CO", "note": "(centres undefined)", "values": [{"measurement": "GI50", "setting": "[1]", "result": "> 100 µM (inactive)"}, {"measurement": "GI50", "setting": "[2]", "result": "> 100 µM (inactive)"}, {"measurement": "GI50", "setting": "[3]", "result": "> 100 µM (inactive)"}, {"measurement": "GI50", "setting": "[4]", "result": "> 100 µM (inactive)"}, {"measurement": "GI50", "setting": "[5]", "result": "> 100 µM (inactive)"}, {"measurement": "GI50", "setting": "[6]", "result": "> 100 µM (inactive)"}, {"measurement": "GI50", "setting": "[7]", "result": "> 100 µM (inactive)"}, {"measurement": "GI50", "setting": "[8]", "result": "> 100 µM (inactive)"}, {"measurement": "GI50", "setting": "[9]", "result": "> 100 µM (inactive)"}, {"measurement": "GI50", "setting": "[10]", "result": "> 100 µM (inactive)"}, {"measurement": "GI50", "setting": "[11]", "result": "> 100", "unit": "µM"}, {"measurement": "GI50", "setting": "[12]", "result": "50.8 µM (inactive)"}, {"measurement": "GI50", "setting": "[13]", "result": "> 100 µM (inactive)"}, {"measurement": "GI50", "setting": "[14]", "result": "> 100 µM (inactive)"}, {"measurement": "GI50", "setting": "[15]", "result": "> 100 µM (inactive)"}, {"measurement": "GI50", "setting": "[16]", "result": "> 100 µM (inactive)"}, {"measurement": "GI50", "setting": "[17]", "result": "> 100 µM (inactive)"}, {"measurement": "GI50", "setting": "[18]", "result": "> 100 µM (inactive)"}, {"measurement": "GI50", "setting": "[19]", "result": "> 100 µM (inactive)"}, {"measurement": "GI50", "setting": "[20]", "result": "> 100 µM (inactive)"}, {"measurement": "GI50", "setting": "[21]", "result": "> 100 µM (inactive)"}, {"measurement": "GI50", "setting": "[22]", "result": "> 100 µM (inactive)"}, {"measurement": "GI50", "setting": "[23]", "result": "> 100 µM (inactive)"}, {"measurement": "GI50", "setting": "[24]", "result": "> 100 µM (inactive)"}, {"measurement": "GI50", "setting": "[25]", "result": "> 100 µM (inactive)"}, {"measurement": "GI50", "setting": "[26]", "result": "> 100 µM (inactive)"}, {"measurement": "GI50", "setting": "[27]", "result": "> 100 µM (inactive)"}, {"measurement": "GI50", "setting": "[28]", "result": "> 100 µM (inactive)"}, {"measurement": "GI50", "setting": "[29]", "result": "> 100 µM (inactive)"}, {"measurement": "GI50", "setting": "[30]", "result": "> 100 µM (inactive)"}, {"measurement": "GI50", "setting": "[31]", "result": "> 100 µM (inactive)"}, {"measurement": "GI50", "setting": "[32]", "result": "> 100 µM (inactive)"}, {"measurement": "GI50", "setting": "[33]", "result": "> 100 µM (inactive)"}, {"measurement": "GI50", "setting": "[34]", "result": "> 100 µM (inactive)"}, {"measurement": "GI50", "setting": "[35]", "result": "> 100 µM (inactive)"}, {"measurement": "GI50", "setting": "[36]", "result": "> 100 µM (inactive)"}, {"measurement": "GI50", "setting": "[37]", "result": "> 100 µM (inactive)"}, {"measurement": "GI50", "setting": "[38]", "result": "> 100 µM (inactive)"}, {"measurement": "GI50", "setting": "[39]", "result": "> 100 µM (inactive)"}, {"measurement": "GI50", "setting": "[40]", "result": "> 100 µM (inactive)"}, {"measurement": "GI50", "setting": "[41]", "result": "> 100 µM (inactive)"}, {"measurement": "GI50", "setting": "[42]", "result": "> 100 µM (inactive)"}, {"measurement": "GI50", "setting": "[43]", "result": "> 100 µM (inactive)"}, {"measurement": "GI50", "setting": "[44]", "result": "> 100 µM (inactive)"}, {"measurement": "GI50", "setting": "[45]", "result": "> 100 µM (inactive)"}, {"measurement": "GI50", "setting": "[46]", "result": "> 100 µM (inactive)"}, {"measurement": "GI50", "setting": "[47]", "result": "28.6 µM (inactive)"}, {"measurement": "GI50", "setting": "[48]", "result": "> 100 µM (inactive)"}, {"measurement": "GI50", "setting": "[49]", "result": "> 100 µM (inactive)"}, {"measurement": "GI50", "setting": "[50]", "result": "> 100 µM (inactive)"}, {"measurement": "GI50", "setting": "[51]", "result": "> 100 µM (inactive)"}, {"measurement": "GI50", "setting": "[52]", "result": "> 100 µM (inactive)"}, {"measurement": "GI50", "setting": "[53]", "result": "> 100 µM (inactive)"}, {"measurement": "GI50", "setting": "[54]", "result": "> 100 µM (inactive)"}, {"measurement": "GI50", "setting": "[55]", "result": "> 100 µM (inactive)"}]}, {"smiles": "Cc1nn(C(=O)Cc2ccccc2)c2c1C(c1ccc3ccccc3c1O)SC(=N)N2", "note": "(centres undefined)", "values": [{"measurement": "GI50", "setting": "[2]", "result": "> 100 µM (inactive)"}, {"measurement": "GI50", "setting": "[3]", "result": "> 100 µM (inactive)"}, {"measurement": "GI50", "setting": "[4]", "result": "> 100 µM (inactive)"}, {"measurement": "GI50", "setting": "[5]", "result": "> 100 µM (inactive)"}, {"measurement": "GI50", "setting": "[6]", "result": "> 100 µM (inactive)"}, {"measurement": "GI50", "setting": "[7]", "result": "22.1 µM (inactive)"}, {"measurement": "GI50", "setting": "[8]", "result": "> 100 µM (inactive)"}, {"measurement": "GI50", "setting": "[56]", "result": "> 100 µM (inactive)"}, {"measurement": "GI50", "setting": "[9]", "result": "> 100 µM (inactive)"}, {"measurement": "GI50", "setting": "[57]", "result": "> 100 µM (inactive)"}, {"measurement": "GI50", "setting": "[10]", "result": "> 100 µM (inactive)"}, {"measurement": "GI50", "setting": "[11]", "result": "> 100", "unit": "µM"}, {"measurement": "GI50", "setting": "[12]", "result": "39.6 µM (inactive)"}, {"measurement": "GI50", "setting": "[13]", "result": "> 100 µM (inactive)"}, {"measurement": "GI50", "setting": "[15]", "result": "> 100 µM (inactive)"}, {"measurement": "GI50", "setting": "[16]", "result": "> 100 µM (inactive)"}, {"measurement": "GI50", "setting": "[17]", "result": "> 100 µM (inactive)"}, {"measurement": "GI50", "setting": "[18]", "result": "> 100 µM (inactive)"}, {"measurement": "GI50", "setting": "[19]", "result": "> 100 µM (inactive)"}, {"measurement": "GI50", "setting": "[20]", "result": "> 100 µM (inactive)"}, {"measurement": "GI50", "setting": "[21]", "result": "> 100 µM (inactive)"}, {"measurement": "GI50", "setting": "[22]", "result": "> 100 µM (inactive)"}, {"measurement": "GI50", "setting": "[23]", "result": "> 100 µM (inactive)"}, {"measurement": "GI50", "setting": "[24]", "result": "> 100 µM (inactive)"}, {"measurement": "GI50", "setting": "[25]", "result": "> 100 µM (inactive)"}, {"measurement": "GI50", "setting": "[26]", "result": "37.8 µM (inactive)"}, {"measurement": "GI50", "setting": "[28]", "result": "> 100 µM (inactive)"}, {"measurement": "GI50", "setting": "[29]", "result": "> 100 µM (inactive)"}, {"measurement": "GI50", "setting": "[30]", "result": "> 100 µM (inactive)"}, {"measurement": "GI50", "setting": "[31]", "result": "67.8 µM (inactive)"}, {"measurement": "GI50", "setting": "[36]", "result": "> 100 µM (inactive)"}, {"measurement": "GI50", "setting": "[37]", "result": "> 100 µM (inactive)"}, {"measurement": "GI50", "setting": "[38]", "result": "76.2 µM (inactive)"}, {"measurement": "GI50", "setting": "[40]", "result": "> 100 µM (inactive)"}, {"measurement": "GI50", "setting": "[41]", "result": "> 100 µM (inactive)"}, {"measurement": "GI50", "setting": "[42]", "result": "> 100 µM (inactive)"}, {"measurement": "GI50", "setting": "[58]", "result": "> 100 µM (inactive)"}, {"measurement": "GI50", "setting": "[44]", "result": "> 100 µM (inactive)"}, {"measurement": "GI50", "setting": "[45]", "result": "> 100 µM (inactive)"}, {"measurement": "GI50", "setting": "[59]", "result": "> 100 µM (inactive)"}, {"measurement": "GI50", "setting": "[46]", "result": "> 100 µM (inactive)"}, {"measurement": "GI50", "setting": "[47]", "result": "52.1 µM (inactive)"}, {"measurement": "GI50", "setting": "[48]", "result": "48.9 µM (inactive)"}, {"measurement": "GI50", "setting": "[49]", "result": "> 100 µM (inactive)"}, {"measurement": "GI50", "setting": "[50]", "result": "> 100 µM (inactive)"}, {"measurement": "GI50", "setting": "[51]", "result": "> 100 µM (inactive)"}, {"measurement": "GI50", "setting": "[53]", "result": "> 100 µM (inactive)"}, {"measurement": "GI50", "setting": "[54]", "result": "> 100 µM (inactive)"}, {"measurement": "GI50", "setting": "[55]", "result": "80 µM (inactive)"}]}]}
